{"source": "patent US20080031903A1", "about": "“METHOD OF TREATING OCULAR INFECTIONS” (priority 2006, published 2008)", "test_system": "Ad5", "assay": "Ad5/NZW rabbit ocular model, Example 5 (IG-Ad-R3)", "type": "in vivo", "method": "Additional experiments were conducted substantially as described in Example 3, in order to determine the antiviral efficacy of a 100 mg/ml solution of IG (intravenous Immune Globulin) in the Ad5/NZW rabbit ocular model.", "key": {"[1]": {"details": "Days 1-5, Early Phase of Infection"}, "[2]": {"details": "Days 7-14, Late Phase of Infection"}}, "note": "Where “and” joins values, the source holds several entries; their conditions need not be identical. Equal values may be shown once. Entries after “also recorded” stand apart in the source; their conditions may differ."}
{"smiles": "Nc1ccn(C[C@@H](CO)OCP(=O)(O)O)c(=O)n1", "note": "[0.5% Cidofovir, Cidofovir]", "values": [{"measurement": "Ad5 ocular viral titer, individual eye", "setting": "D 0, before treatment", "result": "1050 pfu/ml and 50 pfu/ml and 1350 pfu/ml and 1200 pfu/ml and 30 pfu/ml and 6300 pfu/ml and 20 pfu/ml and 600 pfu/ml and 750 pfu/ml and 140 pfu/ml"}, {"measurement": "Ad5 ocular viral titer, individual eye", "setting": "D 1", "result": "35 pfu/ml and 10 pfu/ml and 550 pfu/ml and 5 pfu/ml and 500 pfu/ml and 60 pfu/ml and 200 pfu/ml and 700 pfu/ml (2×) and 400 pfu/ml"}, {"measurement": "Ad5 ocular viral titer, individual eye", "setting": "D 3", "result": "1500 pfu/ml and 5 pfu/ml and 2900 pfu/ml (2×) and 105 pfu/ml and 2600 pfu/ml and 1350 pfu/ml and 1600 pfu/ml and 4500 pfu/ml and 3500 pfu/ml"}, {"measurement": "Ad5 ocular viral titer, individual eye", "setting": "D 4", "result": "0 pfu/ml (2×) and 5 pfu/ml and 750 pfu/ml and 1100 pfu/ml and 400 pfu/ml and 1150 pfu/ml and 7100 pfu/ml and 2000 pfu/ml and 1900 pfu/ml"}, {"measurement": "Ad5 ocular viral titer, individual eye", "setting": "D 5", "result": "15 pfu/ml and 0 pfu/ml (2×) and 750 pfu/ml and 5 pfu/ml and 1400 pfu/ml and 700 pfu/ml and 600 pfu/ml and 850 pfu/ml and 950 pfu/ml"}, {"measurement": "Ad5 ocular viral titer, individual eye", "setting": "D 7", "result": "0 pfu/ml (6×) and 25 pfu/ml and 5 pfu/ml (2×) and 10 pfu/ml"}, {"measurement": "Ad5 ocular viral titer, individual eye", "setting": "D 9", "result": 0, "unit": "pfu/ml"}, {"measurement": "Ad5 ocular viral titer, individual eye", "setting": "D 11", "result": 0, "unit": "pfu/ml"}, {"measurement": "Ad5 ocular viral titer, individual eye", "setting": "D 14", "result": 0, "unit": "pfu/ml"}, {"measurement": "Positive Cultures per Total", "setting": "Day 0, before treatment", "result": "10/10"}, {"measurement": "Positive Cultures per Total, percent", "setting": "Day 0, before treatment", "result": 100, "unit": "%"}, {"measurement": "Positive Cultures per Total", "setting": "Day 1", "result": "10/10"}, {"measurement": "Positive Cultures per Total, percent", "setting": "Day 1", "result": 100, "unit": "%"}, {"measurement": "Positive Cultures per Total", "setting": "Day 3", "result": "10/10"}, {"measurement": "Positive Cultures per Total, percent", "setting": "Day 3", "result": 100, "unit": "%"}, {"measurement": "Positive Cultures per Total", "setting": "Day 4", "result": "8/10"}, {"measurement": "Positive Cultures per Total, percent", "setting": "Day 4", "result": 80, "unit": "%"}, {"measurement": "Positive Cultures per Total", "setting": "Day 5", "result": "8/10"}, {"measurement": "Positive Cultures per Total, percent", "setting": "Day 5", "result": 80, "unit": "%"}, {"measurement": "Positive Cultures per Total", "setting": "Day 7", "result": "4/10"}, {"measurement": "Positive Cultures per Total, percent", "setting": "Day 7", "result": "40% and 80%"}, {"measurement": "Positive Cultures per Total", "setting": "Day 9", "result": "0/10"}, {"measurement": "Positive Cultures per Total, percent", "setting": "Day 9", "result": 0, "unit": "%"}, {"measurement": "Positive Cultures per Total", "setting": "Day 11", "result": "0/10"}, {"measurement": "Positive Cultures per Total, percent", "setting": "Day 11", "result": 0, "unit": "%"}, {"measurement": "Positive Cultures per Total", "setting": "Day 14", "result": "0/10"}, {"measurement": "Positive Cultures per Total, percent", "setting": "Day 14", "result": 0, "unit": "%"}, {"measurement": "Positive Cultures per Total, Total", "setting": "[1]", "result": "36/40"}, {"measurement": "Positive Cultures per Total, Total (%)", "setting": "[1]", "result": 90, "unit": "%"}, {"measurement": "Positive Cultures per Total, Total", "setting": "Days 1-14", "result": "40/80"}, {"measurement": "Positive Cultures per Total, Total (%)", "setting": "Days 1-14", "result": 50, "unit": "%"}, {"measurement": "Positive Cultures per Total, Total", "setting": "[2]", "result": "4/40"}, {"measurement": "Positive Cultures per Total, Total (%)", "setting": "[2]", "result": 10, "unit": "%"}, {"measurement": "Mean Combined Ocular Titers Days 1-5, comparison", "setting": "Early Phase", "result": "significantly lower Mean Combined Ocular Titers Days 1-5 compared with the saline Control"}, {"measurement": "Mean Combined Ocular Titers Days 7-14, comparison", "setting": "Late Phase", "result": "significantly lower Mean Combined Ocular Titers Days 7-14 compared with the saline Control"}, {"measurement": "Positive Cultures per Total Days 7-14, comparison", "setting": "Late Phase", "result": "significantly fewer Positive Cultures per Total Days 7-14 compared with 10% IG and the saline Control"}, {"measurement": "Mean Daily Ocular Titers, comparison", "setting": "days as stated", "result": "significantly lower titer on Day 7 compared the saline Control"}, {"measurement": "Antiviral efficacy, conclusion", "setting": "rabbit, in vivo", "result": "demonstrated its proven antiviral efficacy"}, {"measurement": "Mean Duration of Shedding, comparison", "setting": "rabbit, in vivo", "result": "significantly shorter mean durations of shedding compared with the saline Control; also recorded: significantly shorter mean duration of shedding compared with 10% IG"}, {"measurement": "Positive Cultures per Total Days 1-14, comparison", "setting": "rabbit, in vivo", "result": "significantly fewer Positive Cultures per Total Days 1-14 compared with the saline Control"}]}
